Assay results as given in the NIST ThermoML archive (doi:10.1021/je050366x).

Test: xn = mol fraction of the nth substance listed
Details: for surface tension liquid-gas: Ring tensiometer; for mass density: 100 kPa, Liquid

O=C(O)C(=O)O [ethanedioic acid] + O
x1 = 0.00716
Details	surface tension liquid-gas [mN/m]
280.2 K	73.7
280.5 K	73.7
281.1 K	73.8
281.2 K	73.7
283.9 K	73.3
284.5 K	73.2
285.1 K	73.2
285.7 K	73
288.2 K	72.7
288.7 K	72.4
289.7 K	72.6
290.1 K	72.4
292.2 K	72
293 K	71.9
293.7 K	71.9
294.3 K	71.7
296.2 K	71.3
297.5 K	71.2
298 K	71.2
298.5 K	71.1
301.2 K	70.4
302.1 K	70.6
302.8 K	70.3
304.7 K	70

298 K, Pycnometric method
Details	mass density [kg/m3]
x1 = 0.002	996
x1 = 0.003	1001
x1 = 0.005	1008
x1 = 0.007	1012
x1 = 0.008	1016
x1 = 0.01	1019
x1 = 0.012	1026
x1 = 0.013	1030
x1 = 0.015	1034

O=C(O)CC(O)C(=O)O (stereo not given) [hydroxybutanedioic acid] + O
Details	mass density [kg/m3]	surface tension liquid-gas [mN/m]
279.3 K, x1 = 0.06	–	71
280.5 K, x1 = 0.06	–	70.8
281.3 K, x1 = 0.06	–	70.6
281.7 K, x1 = 0.06	–	70.6
283.6 K, x1 = 0.06	–	70.3
283.7 K, x1 = 0.06	–	70.1
284.6 K, x1 = 0.06	–	70.3
285 K, x1 = 0.06	–	70.2
288.3 K, x1 = 0.06	–	69.7
288.5 K, x1 = 0.06	–	69.5
289.2 K, x1 = 0.06	–	69.7
289.3 K, x1 = 0.06	–	69.5
292.7 K, x1 = 0.06	–	68.7
293.2 K, x1 = 0.06	–	68.7
293.4 K, x1 = 0.06	–	69.1
293.7 K, x1 = 0.06	–	68
297.1 K, x1 = 0.06	–	68.2
297.2 K, x1 = 0.06	–	67.9
297.6 K, x1 = 0.06	–	68.4
297.7 K, x1 = 0.06	–	68
298 K, x1 = 0.003	1006	70.3
298 K, x1 = 0.007	–	70.1
298 K, x1 = 0.015	1037	69.8
298 K, x1 = 0.023	1051	69.3
298 K, x1 = 0.032	1079	69.3
298 K, x1 = 0.043	–	68.4
298 K, x1 = 0.054	1115	68.4
298 K, x1 = 0.058	–	68.1
298 K, x1 = 0.07	–	67.8
298 K, x1 = 0.075	1146	–
298 K, x1 = 0.082	–	67.3
298 K, x1 = 0.087	–	66.8
298 K, x1 = 0.096	1182	–
298.2 K, x1 = 0.06	–	67.8
301.9 K, x1 = 0.06	–	67.5
302.1 K, x1 = 0.06	–	68.1
302.3 K, x1 = 0.06	–	67.9

O=C(O)CC(=O)O [propanedioic acid] + O
Details	surface tension liquid-gas [mN/m]
278.1 K, x1 = 0.06	66.5
279.3 K, x1 = 0.06	66
279.7 K, x1 = 0.06	65.9
282.6 K, x1 = 0.06	66
285 K, x1 = 0.06	65.7
286.5 K, x1 = 0.06	65.6
287.8 K, x1 = 0.06	65.4
288.7 K, x1 = 0.06	65.2
289.6 K, x1 = 0.06	65.3
290.9 K, x1 = 0.06	64.6
291.1 K, x1 = 0.06	65
293 K, x1 = 0.06	64.6
295.3 K, x1 = 0.06	64.7
296.7 K, x1 = 0.06	64.1
297.1 K, x1 = 0.06	64.1
298 K, x1 = 0.01	69.2
298 K, x1 = 0.017	68.5
298 K, x1 = 0.025	66.7
298 K, x1 = 0.033	66.7
298 K, x1 = 0.04	65.6
298 K, x1 = 0.05	65.6
298 K, x1 = 0.055	65.5
298 K, x1 = 0.065	65
298 K, x1 = 0.07	64.2
298 K, x1 = 0.08	63.5
298 K, x1 = 0.088	64.2
298 K, x1 = 0.094	63.5
298 K, x1 = 0.107	62.7
298 K, x1 = 0.122	62.3
298 K, x1 = 0.137	62.2
298 K, x1 = 0.149	62.6
298 K, x1 = 0.158	62.2
298.2 K, x1 = 0.06	63.8
299 K, x1 = 0.06	63.6
299.1 K, x1 = 0.06	63.9
301.2 K, x1 = 0.06	64
303.3 K, x1 = 0.06	63

298 K, Pycnometric method
Details	mass density [kg/m3]
x1 = 0.009	1016
x1 = 0.03	1054
x1 = 0.041	1068
x1 = 0.055	1090
x1 = 0.069	1108
x1 = 0.085	1129
x1 = 0.102	1152
x1 = 0.147	1196
